Data set [1] has as its target T1, Interleukin-1 receptor-associated kinase 4 (Mus musculus) (UniProt Q8R4K2).
T1 sequence (whole entry): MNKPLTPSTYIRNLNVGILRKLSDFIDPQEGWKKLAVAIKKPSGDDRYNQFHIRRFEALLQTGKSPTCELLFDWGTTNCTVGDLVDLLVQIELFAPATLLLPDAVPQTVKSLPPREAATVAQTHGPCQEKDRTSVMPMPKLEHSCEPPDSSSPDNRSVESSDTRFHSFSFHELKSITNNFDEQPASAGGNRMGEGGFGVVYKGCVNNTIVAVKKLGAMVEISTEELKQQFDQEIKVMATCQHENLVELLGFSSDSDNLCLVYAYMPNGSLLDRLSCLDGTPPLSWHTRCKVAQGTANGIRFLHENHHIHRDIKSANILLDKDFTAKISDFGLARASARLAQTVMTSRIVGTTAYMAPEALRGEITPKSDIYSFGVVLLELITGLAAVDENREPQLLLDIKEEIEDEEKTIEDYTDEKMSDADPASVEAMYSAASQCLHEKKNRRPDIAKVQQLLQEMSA
The data set is described as follows: Thermal stabilization of IRAK4 in mouse RAW264.7 cells at 10 uM measured after 4 hrs by CETSA. In kind it is cell-based.

Data set [2] concerns RAW264.7. The data set is described as follows: Inhibition of NFkappaB/MAPK signaling pathway in mouse RAW264.7 cells assessed as reduction in LPS-induced p65 phosphorylation at 50 uM by Western blot analysis. In kind it is cell-based. (Immunoblotting shows a protein as a band on a membrane.)
Data set [3] concerns RAW264.7. The experiment in a line: Inhibition of NFkappaB/MAPK signaling pathway in mouse RAW264.7 cells assessed as reduction in LPS-induced JNK phosphorylation at 50 uM by Western blot analysis. In kind it is cell-based.
The subject of data set [4] is RAW264.7. The data set is described as follows: Inhibition of NFkappaB/MAPK signaling pathway in mouse RAW264.7 cells assessed as reduction in LPS-induced p38 phosphorylation at 50 uM by Western blot analysis. In kind it is cell-based.
Data set [5] concerns RAW264.7. The data set is described as follows: Inhibition of NFkappaB/MAPK signaling pathway in mouse RAW264.7 cells assessed as reduction in LPS-induced IkappaBalpha degradation at 50 uM by Western blot analysis. In kind it is cell-based.
In data set [6] the test system is Mus musculus. The experiment in a line: Anti-colitis activity in male C57BL/6 mouse model of DSS-induced ulcerative colitis assessed as colon length at 10 mg/kg, po administered for 11 days with subsequent administration of DSS for 8 days (reference value: 5.2 cm). In kind it is functional. The note with it: time 11 day.
Data set [7] deals with Mus musculus. The experiment in a line: Antiinflammatory activity in male C57BL/6 mouse model of DSS-induced ulcerative colitis assessed as reduction in spleen to body weight ratio at 10 mg/kg, po administered for 11 days with subsequent administration of DSS for 8 days. The note with it: time 11.0 day. In kind it is functional, organism-based.
Data set [8] concerns Mus musculus. The data set is described as follows: Antiinflammatory activity in male C57BL/6 mouse model of DSS-induced ulcerative colitis assessed as reduction in IL-6 level in serum at 10 mg/kg, po administered for 11 days with subsequent administration of DSS for 8 days by ELISA. In kind it is functional, organism-based. Conditions: time 11.0 day. A general note: An ELISA detects its analyte on a solid surface through an enzyme-linked reagent.

The subject of data set [9] is Mus musculus. The experiment in a line: Antiinflammatory activity in male C57BL/6 mouse model of DSS-induced ulcerative colitis assessed as reduction in TNF-alpha level in serum at 10 mg/kg, po administered for 11 days with subsequent administration of DSS for 8 days by ELISA. The note with it: time 11.0 day. In kind it is functional, organism-based.
Data set [10] relates to Mus musculus. The experiment in a line: Antiinflammatory activity in male C57BL/6 mouse model of DSS-induced ulcerative colitis assessed as reduction in colonic structure destruction at 10 mg/kg, po administered for 11 days with subsequent administration of DSS for 8 days by H and E staining based analysis. In kind it is functional, organism-based. The note with it: time 11.0 day.

Data set [11] relates to Mus musculus. The data set is described as follows: Antiinflammatory activity in male C57BL/6 mouse model of DSS-induced ulcerative colitis assessed as preservation of goblet cells at 10 mg/kg, po administered for 11 days with subsequent administration of DSS for 8 days by H and E staining based analysis. In kind it is functional, organism-based. The note with it: time 11.0 day.

The subject of data set [12] is Mus musculus. The experiment in a line: Antiinflammatory activity in male C57BL/6 mouse model of DSS-induced ulcerative colitis assessed as restoration of protein status at 10 mg/kg, po administered for 11 days with subsequent administration of DSS for 8 days by H and E staining based analysis. In kind it is functional, organism-based. Conditions: time 11.0 day.
The test system of data set [13] is Mus musculus. The data set is described as follows: Antiinflammatory activity in male C57BL/6 mouse model of DSS-induced ulcerative colitis assessed as reduction in macrophage infiltration in colon at 10 mg/kg, po administered for 11 days with subsequent administration of DSS for 8 days by F4/80 labeling based immunohistochemistry analysis. The note with it: time 11.0 day. In kind it is functional, organism-based.

Data set [14] has as its system Mus musculus. The experiment in a line: Antiinflammatory activity in male C57BL/6 mouse model of DSS-induced ulcerative colitis assessed as reduction in macrophage infiltration in spleen at 10 mg/kg, po administered for 11 days with subsequent administration of DSS for 8 days by F4/80 labeling based immunohistochemistry analysis. Conditions: time 11.0 day. In kind it is functional, organism-based.

In data set [15] the test system is Mus musculus. The data set is described as follows: In vivo binding affinity to IRAK4 in DSS-induced ulcerative colitis C57BL/6 mouse colon assessed as thermal stabilization at 10 mg/kg, po administered for 11 days with subsequent administration of DSS for 8 days by CETSA. In kind it is functional, organism-based. The note with it: time 11.0 day.
Data set [16] can be described thus: Half life in po dosed rat. Conditions: in vivo. In kind it is ADME, organism-based.

Active and inactive are the calls of the source.

Turning to `CC[C@@H]1[C@H](F)C(=O)N[C@@H]1COc1nccc2cc(C(N)=O)c(OC)cc12` [ZIMLOVISERTIB], the result (in data set [1]; with Mus musculus [7]; with Mus musculus [8]; in the data set on Mus musculus [9]; in the data set with Mus musculus [10]; in the data set on Mus musculus [11]) was Active. For the same molecule, the outcome with Mus musculus [12], in the data set on Mus musculus [13] and in the data set with Mus musculus [14] was Active. In addition, the inhibition result in the data set with RAW264.7 [2], in the data set with RAW264.7 [3], with RAW264.7 [4] and with RAW264.7 [5] was “Active” throughout. In the data set with Mus musculus [6], the Activity stood at 5.5 cm. Also, the outcome in the data set on Mus musculus [15] was inactive. For the same molecule, the half-life – broadly, the time needed for the level to fall by half in the phase considered – in data set [16] is 2.8 h.
